In ChEMBL document CHEMBL3396973, “Synthesis and biological evaluation of new pyrazol-4-ylpyrimidine derivatives as potential ROS1 kinase inhibitors” (Eur J Med Chem, 2015):

How the values were obtained:
[1] = biological target: T1, Hepatocyte growth factor receptor (Homo sapiens, UniProt P08581)
[2] = biological target: T2, Proto-oncogene tyrosine-protein kinase ROS (Homo sapiens, UniProt P08922)
[3] = biological target: T2, Proto-oncogene tyrosine-protein kinase ROS; remark: listed apart in the source
[4] = biological target: T2, Proto-oncogene tyrosine-protein kinase ROS; assay: Inhibition of ROS1 (unknown origin) by HotSpot assay
[5] = biological target: T2, Proto-oncogene tyrosine-protein kinase ROS; remark: listed apart in the source
[6] = biological target: ALK tyrosine kinase receptor (Homo sapiens, UniProt Q9UM73)
[7] = biological target: T1, Hepatocyte growth factor receptor; remark: listed apart in the source

T2 sequence (P08922 whole entry): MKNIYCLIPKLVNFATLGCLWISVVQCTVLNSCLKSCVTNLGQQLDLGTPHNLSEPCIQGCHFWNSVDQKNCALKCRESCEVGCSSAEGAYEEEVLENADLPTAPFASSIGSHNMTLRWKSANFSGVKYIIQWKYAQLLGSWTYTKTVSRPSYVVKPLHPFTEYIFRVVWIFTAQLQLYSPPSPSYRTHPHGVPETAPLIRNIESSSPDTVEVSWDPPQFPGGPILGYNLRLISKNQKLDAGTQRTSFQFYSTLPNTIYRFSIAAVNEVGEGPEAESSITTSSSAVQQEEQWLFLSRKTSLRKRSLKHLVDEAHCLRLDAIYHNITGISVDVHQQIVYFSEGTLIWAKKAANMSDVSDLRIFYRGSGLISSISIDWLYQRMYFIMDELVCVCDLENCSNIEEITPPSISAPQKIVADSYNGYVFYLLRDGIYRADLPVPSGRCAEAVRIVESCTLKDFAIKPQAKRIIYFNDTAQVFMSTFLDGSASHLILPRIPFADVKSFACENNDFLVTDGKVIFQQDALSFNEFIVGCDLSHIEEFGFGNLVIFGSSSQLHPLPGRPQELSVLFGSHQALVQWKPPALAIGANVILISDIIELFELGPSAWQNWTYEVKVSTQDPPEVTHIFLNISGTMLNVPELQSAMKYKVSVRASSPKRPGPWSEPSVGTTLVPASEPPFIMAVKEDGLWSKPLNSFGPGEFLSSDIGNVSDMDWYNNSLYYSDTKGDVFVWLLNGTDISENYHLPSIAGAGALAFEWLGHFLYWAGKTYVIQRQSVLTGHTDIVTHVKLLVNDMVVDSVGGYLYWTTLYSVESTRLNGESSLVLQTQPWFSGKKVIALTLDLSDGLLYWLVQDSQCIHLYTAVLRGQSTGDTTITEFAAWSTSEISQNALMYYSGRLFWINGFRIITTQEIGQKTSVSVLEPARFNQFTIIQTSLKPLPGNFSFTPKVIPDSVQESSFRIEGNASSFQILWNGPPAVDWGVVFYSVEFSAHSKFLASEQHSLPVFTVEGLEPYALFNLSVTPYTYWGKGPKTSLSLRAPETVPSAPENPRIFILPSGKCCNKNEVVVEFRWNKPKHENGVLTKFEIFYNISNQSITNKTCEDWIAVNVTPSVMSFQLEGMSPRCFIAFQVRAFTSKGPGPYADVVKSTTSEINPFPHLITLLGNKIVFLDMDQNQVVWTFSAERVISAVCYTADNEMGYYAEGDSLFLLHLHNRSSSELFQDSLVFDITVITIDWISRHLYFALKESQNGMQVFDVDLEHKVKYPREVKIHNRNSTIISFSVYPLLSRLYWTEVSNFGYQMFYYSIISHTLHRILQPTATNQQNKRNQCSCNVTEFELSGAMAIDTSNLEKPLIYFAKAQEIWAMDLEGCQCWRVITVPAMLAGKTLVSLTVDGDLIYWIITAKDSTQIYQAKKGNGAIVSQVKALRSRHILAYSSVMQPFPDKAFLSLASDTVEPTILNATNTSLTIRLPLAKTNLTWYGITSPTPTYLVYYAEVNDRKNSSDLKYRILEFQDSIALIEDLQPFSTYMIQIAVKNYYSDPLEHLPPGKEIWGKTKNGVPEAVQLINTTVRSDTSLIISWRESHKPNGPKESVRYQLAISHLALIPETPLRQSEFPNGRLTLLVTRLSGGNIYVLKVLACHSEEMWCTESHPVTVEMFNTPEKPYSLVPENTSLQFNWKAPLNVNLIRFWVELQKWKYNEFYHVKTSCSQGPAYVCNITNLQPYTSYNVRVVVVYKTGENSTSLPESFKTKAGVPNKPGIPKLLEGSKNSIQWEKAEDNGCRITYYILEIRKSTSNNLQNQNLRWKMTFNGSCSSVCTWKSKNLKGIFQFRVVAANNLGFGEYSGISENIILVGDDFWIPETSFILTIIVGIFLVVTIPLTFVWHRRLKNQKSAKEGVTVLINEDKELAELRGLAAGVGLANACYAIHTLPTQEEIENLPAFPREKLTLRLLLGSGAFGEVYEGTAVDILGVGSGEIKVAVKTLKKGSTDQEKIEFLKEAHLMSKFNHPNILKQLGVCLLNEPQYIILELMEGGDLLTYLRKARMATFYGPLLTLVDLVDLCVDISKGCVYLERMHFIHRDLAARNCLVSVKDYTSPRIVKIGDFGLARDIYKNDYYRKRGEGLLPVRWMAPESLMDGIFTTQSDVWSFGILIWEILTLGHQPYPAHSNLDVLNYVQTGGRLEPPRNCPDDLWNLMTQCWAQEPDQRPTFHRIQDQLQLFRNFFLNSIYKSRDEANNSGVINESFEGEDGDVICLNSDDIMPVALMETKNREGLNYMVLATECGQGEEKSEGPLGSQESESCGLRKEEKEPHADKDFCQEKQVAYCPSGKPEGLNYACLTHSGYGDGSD
T1 sequence (P08581 whole entry): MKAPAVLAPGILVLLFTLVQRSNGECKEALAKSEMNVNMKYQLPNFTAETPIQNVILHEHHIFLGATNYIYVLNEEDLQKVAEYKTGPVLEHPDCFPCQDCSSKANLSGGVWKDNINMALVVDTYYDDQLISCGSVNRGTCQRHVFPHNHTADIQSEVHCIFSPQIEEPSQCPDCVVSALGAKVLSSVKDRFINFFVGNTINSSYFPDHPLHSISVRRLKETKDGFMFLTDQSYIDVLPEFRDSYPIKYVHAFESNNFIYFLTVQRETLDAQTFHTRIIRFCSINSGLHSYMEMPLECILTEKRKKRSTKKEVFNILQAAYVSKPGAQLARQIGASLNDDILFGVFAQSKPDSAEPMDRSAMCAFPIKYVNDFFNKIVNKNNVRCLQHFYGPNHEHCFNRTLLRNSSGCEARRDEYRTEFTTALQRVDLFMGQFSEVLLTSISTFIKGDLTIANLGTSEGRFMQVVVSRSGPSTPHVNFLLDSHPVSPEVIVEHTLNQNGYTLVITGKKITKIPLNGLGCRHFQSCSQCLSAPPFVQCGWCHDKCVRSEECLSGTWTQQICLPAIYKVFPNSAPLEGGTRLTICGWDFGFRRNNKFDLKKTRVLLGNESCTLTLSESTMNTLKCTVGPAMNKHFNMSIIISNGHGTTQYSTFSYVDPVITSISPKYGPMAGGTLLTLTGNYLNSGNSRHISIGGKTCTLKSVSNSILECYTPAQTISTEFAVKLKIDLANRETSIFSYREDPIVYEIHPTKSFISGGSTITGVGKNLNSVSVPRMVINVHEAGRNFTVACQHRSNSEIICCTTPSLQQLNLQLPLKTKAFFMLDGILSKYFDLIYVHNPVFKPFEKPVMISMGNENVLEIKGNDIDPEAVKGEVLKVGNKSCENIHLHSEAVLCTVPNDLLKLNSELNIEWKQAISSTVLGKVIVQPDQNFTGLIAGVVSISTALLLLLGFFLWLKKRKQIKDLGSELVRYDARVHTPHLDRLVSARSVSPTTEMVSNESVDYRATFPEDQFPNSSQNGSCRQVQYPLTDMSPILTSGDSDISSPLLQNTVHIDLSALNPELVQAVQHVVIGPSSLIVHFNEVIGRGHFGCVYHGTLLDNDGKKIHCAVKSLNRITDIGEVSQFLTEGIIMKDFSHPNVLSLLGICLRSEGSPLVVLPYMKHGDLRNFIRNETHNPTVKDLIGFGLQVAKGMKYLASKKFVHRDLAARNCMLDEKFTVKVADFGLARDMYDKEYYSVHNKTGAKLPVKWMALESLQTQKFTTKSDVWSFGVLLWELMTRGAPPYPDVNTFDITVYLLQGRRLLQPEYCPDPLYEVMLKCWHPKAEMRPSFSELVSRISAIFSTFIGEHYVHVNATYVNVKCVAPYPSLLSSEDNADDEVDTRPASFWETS

Row | IC50 [1] | IC50 [2] [nM] | Compound | further results
1 | Not Active | 108 | Cc1cc(O)cc(-c2nn(CC#N)cc2-c2cc(NCCCO)nc(-c3cccnc3)n2)c1 | –
2 | Not Active | 148 | COc1cc(C)cc(-c2nn(CC#N)cc2-c2cc(NCCN3CCOCC3)nc(-c3cccnc3)n2)c1 | –
3 | – | – | COc1cc(N2CCC(N(C)C)CC2)ccc1Nc1ncc(Cl)c(Nc2ccccc2P(C)(C)=O)n1 | IC50 [3]: 1.9 nM
4 | Not Active | 119 | COc1cc(C)cc(-c2nn(CC#N)cc2-c2cc(NCCCO)nc(-c3cccnc3)n2)c1 | –
5 | – | – | COc1cc(C)cc(-c2c(-c3ccnc(-c4ccc(NC(C)=O)cc4)c3)cnn2CC#N)c1 | IC50 [4]: 6250 nM
6 | – | 357 | COCCCNc1cc(-c2cnc(C)nc2-c2ccc(Cl)cc2Cl)nc(-c2cccnc2)n1 | –
7 | – | – | COCCCNc1cc(-c2cnc(C)nc2-c2ccc(Cl)cc2Cl)nc(-c2ccccc2)n1 | IC50 [5]: Not Active
8 | – | – | COc1ccc(-c2cc(-c3c[nH]nc3-c3cc(C)cc(OC)c3)ccn2)cc1 | IC50 [4]: 1250 nM
9 | – | 1330 | COCCCNc1cc(-c2cnc(C)nc2-c2ccc(F)cc2Cl)nc(-c2cccnc2)n1 | –
10 | Not Active | 24 | Cc1cc(O)cc(-c2nn(CC#N)cc2-c2cc(NCCCCO)nc(-c3cccnc3)n2)c1 | –
11 | Not Active | 920 | COc1cc(C)cc(-c2nn(CC#N)cc2-c2cc(NCC(C)C)nc(-c3cccnc3)n2)c1 | –
12 | – | – | COCCCNc1cc(-c2cnc(C)nc2-c2ccc(F)cc2Cl)nc(-c2ccccc2)n1 | IC50 [5]: Not Active
13 | – | 330 | Cc1ncc(-c2ccnc(-c3cccnc3)c2)c(-c2ccc(Cl)cc2Cl)n1 | –
14 | Not Active | 780 | Cc1cc(O)cc(-c2nn(CC#N)cc2-c2cc(NCC(C)C)nc(-c3cccnc3)n2)c1 | –
15 | Not Active | 478 | Cc1cc(O)cc(-c2nn(CC#N)cc2-c2cc(NCCN3CCOCC3)nc(-c3cccnc3)n2)c1 | –
16 | – | 1.7 | Cc1cc(O)cc(-c2nn(CC#N)cc2-c2cc(NC[C@H](C)O)nc(-c3cccnc3)n2)c1 | IC50 [6]: 0.6 nM; IC50 [7]: 11 nM
17 | Not Active | 88 | COc1cc(C)cc(-c2nn(CC#N)cc2-c2cc(NCCCN3CCOCC3)nc(-c3cccnc3)n2)c1 | –
18 | Not Active | 183 | Cc1cc(O)cc(-c2nn(CC#N)cc2-c2cc(NCCCN3CCOCC3)nc(-c3cccnc3)n2)c1 | –
19 | Not Active | 56 | COc1cc(C)cc(-c2nn(CC#N)cc2-c2cc(NCCCCO)nc(-c3cccnc3)n2)c1 | –
20 | – | 570 | Cc1ncc(-c2ccnc(-c3cccnc3)c2)c(-c2ccc(F)cc2Cl)n1 | –
